Reference: patent US8039670B2, “Analogs of alpha galactosyceramide and uses thereof” (Ludwig Institute for Cancer Research, priority 2005, dated 2011)

Experiments:
[1] = tested on: IL-12p40 released by the DC; test: IL-12p40 ELISA of supernatants of DC/iNKT co-cultures; assay type: cell-based, human; conditions: DC/iNKT co-culture, 24 hours
Description: (§1) Different analogs of α-GalCer as indicated or LPS were added to co-cultures of human DC and iNKT cells. (A) Maturation of the DC was assessed after 40 h, gating on CD11c positive cells. Histograms indicate the CD83 and CD86 profiles of DC from different treatments; the percentages indicate the percentage of CD83hi mature DC and the numbers in parenthesis, the mean fluorescence intensity of the population contained within the labeled gate. DC and iNKT cells were co-cultured in the presence of different analogs of α-GalCer for 24 hours. Supernatants were analyzed using ELISA for the presence of (B) IL-12p40 released by the DC and (C) IFN-γ from the iNKT cells. […] Cells were co-cultured in the presence of the indicated concentration of analog and the percentages of DC with increased CD83/CD80 are shown. […] Viability of α-GalCer or analog-pulsed DC was assessed after 40 h co-culture in the presence of iNKT cells by flow cytometry. Cells were stained with propidium iodide and the percentage of live CD11c gated cells remaining in the culture are shown.
(§2) Human monocyte-derived DC were pulsed with 150 ng of different inositol analogs and co-cultured with iNKT cells for 24 h. […] Numbers indicate the mean fluorescence intensity of the histogram gated on CD11c^+ cells.
Release of IL-12p40 (and bioactive p75) by DC is a marker of activation and is thought to play an important role in regulating the profile of the immune response generated in response to those DC (Trinchieri et al, Nat Rev Immunol, 2003, 3; 133-46).

[2] = tested on: IFN-γ from the iNKT cells; test: IFN-γ ELISA of supernatants of DC/iNKT co-cultures; assay type: cell-based, human; conditions: analogs presented by DC
Description: as §1, §2

IL-4 and IFN-γ = test: Serum cytokines after i.v. injection into mice (ELISA); assay type: in vivo, C57BL/6 mice; conditions: for cytokine release in serum (IL-4, IFN-γ, IL-12p40/70): wild type mice, 1 μg i.v., 2, 6 and 18-24 h
Description: C57BL/6 or iNKT^−/− mice were injected i.v. with 1 μg of vehicle, α-GalCer, analog or 25 μg MPL. Twenty hours after injection splenocytes were stained with antibodies against CD11c, B220 and CD86 and analyzed by flow cytometry. (A) Maturation was assessed by the upregulation of CD86 at the cell surface, gating on DC (CD11c^+). Mean fluorescence intensity for each histogram is indicated. These are representative profiles of two independent experiments. 2, 6 and 18-24 h after injection as described, the mice were bled and the serum tested with ELISA for the presence of (B) IL-4 and (C) IFN-γ released in response to the analog.
Stimulation of iNKT cells by α-GalCer in the context of CD1d rapidly induces release of significant levels of a number of cytokines including IFN-γ and IL-4 (Burdin, Brossay et al, J Immunol, 1998, 161; 3271-81), IL-3 and GM-CSF (Leite-de-Moraes, Lisbonne et al, Eur J Immunol, 2002, 32; 1897-904) with other downstream cell-types including DC (Kitamura, Iwakabe et al, J Exp Med, 1999, 189; 1121-8) and NK cells (Carnaud, Lee et al, J Immunol, 1999, 163; 4647-50) being activated.

E.G7-OVA tumour cells = test: Prophylactic challenge with E.G7-OVA tumour cells after co-injection with OVA; assay type: in vivo, C57BL/6 mice; conditions: injected with OVA, challenge 7 days later with 1×10^6 E.G7-OVA s.c.
Description: (A) C57BL/6 mice were co-injected with 1 μg α-GalCer or analog and 800 μg OVA. 6 days later blood samples taken from the tail vein were stained directly ex vivo with fluorescent […]-K^b tetramers and an anti-CD8 antibody and analyzed by flow cytometry. Data are shown as tetramer positive cells as a percentage of CD8^+ cells. (B) 7 days after injection, the mice were challenged in a prophylactic setting with 1×10^6 E.G7-OVA tumour cells s.c. and the size of the tumour monitored over subsequent days.

p40 form of IL-12 = test: Example A: IL-12 p40 ELISA as indication of DC stimulation; assay type: cell-based, human
OVA specific response = test: Example C: OVA specific CTL response in mice injected with OVA and compound (tetramer); assay type: in vivo; conditions: for OVA specific response: 400 μg OVA with 1 μg compound i.v.; for CTL response with MPL coinjected: coinjected with 25 μg MPL
Description: Subject animals, five mice per group, received an intravenous injection of 400 μg of ovalbumin (OVA) together with 1 μg of one of the compounds of the invention under examination or an equivalent volume of PBS diluted vehicle solution. A subset of mice were injected with 25 μg of the molecule MPL (Sigma-Aldrich; extracted from Salmonella Minnesota) solubilized in PBS.
Following the injections, blood was obtained from lateral tail veins, and PBLs were isolated, using standard methods. The PBLs were then stained, directly, […], with tetrameric, H-2 Kb/OVA 257-264, H-21 Kb complexes, following Palmowski, et al., J. Immunol., 168:4391-4398 (2002), incorporated by reference. The tetramers were prepared in accordance with Whilan, et al., J. Immunol., 163:4342-4348 (1999), incorporated by reference.

[3] = tested on: DCs obtained from the spleen; test: Example E: phenotyping of spleen DCs after tail vein injection (CD86); assay type: in vivo, mice; conditions: 1 μg tail vein, 24 h
Description: In brief, in each experiment, 1 μg of one of a selection of compounds of the invention was injected into the tail vein of subject mice. 24 h later spleen tissue was removed from the animals and gently teased through gauze into complete medium, supplemented with 5 mM of EDTA. Cells were enriched for CD11c by anti-CD11, magnetic beads using published techniques. Once enriched, they were assayed for maturation markers using antibody staining and flow cytometry. Non-specific staining was addressed by using an antibody specific for the Fc-RIII/II receptor.

[4] = tested on: OVA specific IgG antibodies; test: Example D: OVA specific IgG antibodies in serum of immunized mice (ELISA); assay type: in vivo; conditions: ten days following immunization
Description: OVA protein coated ELISA plates, were prepared, using well known methods. Then, blood samples were taken, ten days following immunization, and serum was prepared.
The samples were taken from mice that had been immunized with OVA only, OVA and Compound 1, arabinitol ceramide, OVA and αGal-Cer, or OVA and Compound 2, glycerol ceramide. Additionally, mice were immunized with each of these schedules with MPL added. Serum IgG titers were measured by adding serial dilutions of mouse serum were detected using horseradish peroxidase (HRP) conjugated α-mouse IgG.

| Compound | IL-12p40 level relative to that seen with α-GalCer [1] | IFN-γ released by the iNKT cells [2] | skewing of cytokine response to Th2 (IL-4 and IFN-γ; compared with OCH) | potency of cytokine induction compared with α-GalCer (IL-4 and IFN-γ; equivalent doses) | cytokine release in serum (IL-4, IFN-γ, IL-12p40/70) (IL-4 and IFN-γ) | tumour growth (E.G7-OVA tumour cells) | IL-12 potency relative to αGal-Cer (p40 form of IL-12) | OVA specific response (OVA specific response) | CTL response with MPL coinjected (OVA specific response) | induction of CD86 on spleen DC in vivo [3] | IL-12 potency, fold less potent than Compound 3 (p40 form of IL-12) | OVA specific antibody response, adjuvant effect compared with MPL [4] | IL-12p40 released [1] |
| --- | --- | --- | --- | --- | --- | --- | --- | --- | --- | --- | --- | --- | --- |
| CCCCCCCCCCCCCCCCCCCCCCCCCC(=O)N[C@@H](COC[C@H](O)[C@@H](O)CO)[C@H](O)[C@H](O)CCCCCCCCCCCCCC [Compound 3, Threitol Ceramide] | approximately 50% | ~20 ng/mL | Neither compound showed a skewed Th2 cytokine response | less potent than α-GalCer at equivalent doses | detected in the serum with a similar time-course to that seen with α-GalCer | little or no tumour growth | approximately 50% | enhancement of the OVA specific response | enhancement of the CTL response | did not induce the DC86 marker significantly | – | – | – |
| CCCCCCCCCCCCCCCCCCCCCCCCCC(=O)N[C@@H](COC[C@@H](O)CO)[C@H](O)[C@H](O)CCCCCCCCCCCCCC [Compound 2, Glycerol Ceramide] | approximately 50% | ~20 ng/mL | – | – | did not induce any detectable cytokine release | – | – | Enhancement was weakest | – | induced CD86 in vivo similarly | approximately 1000 fold | less effective than MPL whilst still producing OVA specific antibodies | – |
| CCCCCCCCCCCCCCCCCCCCCCCCCC(=O)N[C@@H](CO[C@H]1OC(CO)[C@H](O)C(O)C1O)[C@H](O)[C@H](O)CCCCCCCCCCCCCC (stereo partly drawn) [α-GalCer, α galactosylceramide, reference compound] | – | approximately 40 ng/ml | – | – | – | little or no tumour growth | – | enhancement of the OVA specific response | enhancement of the CTL response | induced CD86 in vivo similarly | – | more effective as adjuvants than MPL | significant levels of IL-12p40 |
